Source: paper PMC12332266 (Frontiers in Pharmacology, 2025)
Several values for one entry are separate records, joined by “and”; a condition that tells them apart may be missing. Equal entries are not always repeated.

What was measured:
[1] = tested on: hiPSC-CM (iCell Cardiomyocytes^2); test: Intracellular miRNA expression by RT-qPCR in hiPSC-CM pellets after 72-hour treatment
Procedure: (§1) Culture media change was performed every 2 days.
Total RNA was extracted from hiPSC-CM using the miRNeasy 96 Kit (Qiagen, Hilden, Germany) following the manufacturer’s recommendations. After the extraction, RNA purity was assessed by NanoDrop™ 8000 Spectrophotometer (Thermo Fisher Scientific Inc.). 5–10 ng/μL of RNA per sample were reverse transcribed and pre-amplified by using the TaqMan™ Advanced miRNA cDNA Synthesis Kit (Thermo Fisher Scientific Inc.). The synthesized cDNA was used for RT-qPCR with selected TaqMan™ assays (Thermo Fischer Scientific Inc.). RT-qPCR was carried out following the Applied Biosciences TaqMan miRNA expression assay protocol on a ViiA7 instrument (Thermo Fisher Scientific, Inc.). […] Therefore, to maximize the number of drugs and concentrations, explored in the same study, we pooled the triplicates for intracellular profiling of miRNAs. Therefore, no statistical analysis was performed on the data of miRNA profiling in the pellets of hiPSC-CM.
Following RTCA CardioECR assessment, hiPSC-CM cell pellets were collected, and total RNA was extracted and purified to investigate miRNAs upregulation by RT-qPCR. […] For the initial assessment of intracellular miRNAs in 12 different treatments, encompassing various drug classes, we used a panel of 17 miRNAs, which we selected from the publicly available data focusing mainly on in vitro models and structural cardiotoxicants (Supplementary Table S2).

[2] = tested on: hiPSC-CM (iCell Cardiomyocytes^2); test: RTCA CardioECR assessment (impedance and electrophysiology parameters); conditions: for Spike Amplitude (SA) MEC / Beating Rate MEC / Beating rate (BR) MEC / Contractility Amplitude MEC / Field Potential Duration MEC / RTCA, MEC (BR): human, 72 h; for RTCA, MEC (CI): change ≥20%, Table 2
Procedure: as §1
After seeding on fibronectin-coated xCELLigence ePlates (Agilent Technologies, Inc. Santa Clara, CA, USA), iCell^2 CM were monitored continuously through impedance electrodes. The following impedance parameters were measured: Cell Index (CI, measure of cell “health” and monolayer integrity), beating rate (BR) and amplitude (CI Amplitude, magnitude of contraction). Electrophysiology-like parameters (Field Potential Duration (FPD), considered as a surrogate for QT in in vivo studies, and Spike Amplitude (SA), depolarization induced by Na^+ channel opening) were measured starting from day 4–6, following the monolayer formation. […] All RTCA CardioECR data were double normalized (DMSO control and the baseline) with no further statistical group comparison for the normalized parameters. The variability of the data within the treatment groups was assessed by standard deviation.

miRNAs hiPSC-CM pellet, MEC overall [1] [µM] | Spike Amplitude (SA) MEC [2] [µM] | Molecule | miRNAs upregulated at the MEC overall (hiPSC-CM pellet) [1] | RTCA, MEC (CI) ([2]; hiPSC-CM) | Beating Rate MEC [2] [µM] | Beating rate (BR) MEC [2] [µM] | Contractility Amplitude MEC [2] [µM] | Field Potential Duration MEC [2] [µM] | RTCA, MEC (BR) [2] | hsa-miR-133b fold change [1] | hsa-miR-208b-3p fold change [1] | Contractility Amplitude magnitude of effect at MEC ([2]; hiPSC-CM, 72-hour treatment) [%] | Field Potential Duration magnitude of effect at MEC ([2]; hiPSC-CM, 72-hour treatment) | Spike Amplitude (SA) magnitude of effect at MEC ([2]; hiPSC-CM, 72-hour treatment) [%]
0.3 | 0.3 | Cc1ccc(NC(=O)c2ccc(CN3CCN(C)CC3)cc2)cc1Nc1nccc(-c2cccnc2)n1 [Imatinib] | – | – | – | – | – | – | – | – | – | – | – | –
0.3 | 3 | CC(=O)O[C@H]1C(=O)[C@@]2(C)[C@H]([C@H](OC(=O)c3ccccc3)[C@]3(O)C[C@H](OC(=O)[C@H](O)[C@@H](NC(=O)c4ccccc4)c4ccccc4)C(C)=C1C3(C)C)[C@]1(OC(C)=O)CO[C@@H]1C[C@@H]2O [Paclitaxel] | miR-96-5p, miR-133b | 0.3 µM | 3 | 3 | 0.3 | 3 | 3 µM | – | – | – | – | –
– | – | Endothelin-1 | – | – | – | – | – | – | – | 2.7 and 3.5 and 3.1 | 1.6 and 1.5 and 1.1 and 1.0 | -20 | +20% | -52

Molecule | miRNAs hiPSC-CM pellet, MEC overall [1] [µM] | Spike Amplitude (SA) MEC [2] [µM] | miRNAs upregulated at the MEC overall (hiPSC-CM pellet) [1] | RTCA, MEC (CI) ([2]; hiPSC-CM) | Beating Rate MEC [2] [µM] | Beating rate (BR) MEC [2] [µM] | Contractility Amplitude MEC [2] [µM] | Field Potential Duration MEC [2] [µM] | RTCA, MEC (BR) [2] | hsa-miR-133b fold change [1] | hsa-miR-208b-3p fold change [1] | Contractility Amplitude magnitude of effect at MEC ([2]; hiPSC-CM, 72-hour treatment) [%] | Field Potential Duration magnitude of effect at MEC ([2]; hiPSC-CM, 72-hour treatment) | Spike Amplitude (SA) magnitude of effect at MEC ([2]; hiPSC-CM, 72-hour treatment) [%]
O=C1c2c(O)ccc(O)c2C(=O)c2c(NCCNCCO)ccc(NCCNCCO)c21 [Mitoxantrone] | 0.1 | 0.1 | miR-96 -5p, miR-146b-5p, miR-182-5p, miR-187-3p, miR-365a-5p | 0.1 µM (CI, BR) | 0.1 | 0.1 | 0.1 | 0.1 | 0.1 µM (CI, BR) | – | – | – | – | –
